Experimental data as given in patent US9862690B2, “Treatment of pulmonary and other conditions” (University of Pittsburgh—of the Commonwealth System of …, priority 2013, dated 2018).

Assays:
p65 subunit of NF-κB = biological target: T1, p65 subunit of NF-κB (Homo sapiens, UniProt Q04206); assay: LPS-induced NF-κB p65 DNA-binding activity in BEAS-2B cells; type: cell-based; details: 1 h pre-treatment, then LPS 6 h
T1 construct: endogenous in cells; host or cells: BEAS-2B
Procedure: BEAS-2B cells were treated with varying concentrations of PB141 for 24 h, after which (A) Nrf2 activity was measured or (C) nuclear Nrf2 concentration was determined by Western blotting. (B) In other experiments cells were pretreated with varying concentrations of PB141 for 1 h, then with LPS (500 ng/ml) for 6 h. Cells were then isolated and activity of NF-κB was measured.
BEAS-2B cells were cultured in Dulbecco's modified Eagle's medium (DMEM) containing 10% heat-inactivated fetal bovine serum, penicillin, and streptomycin (100 IU/ml). Monolayer cultures were treated with different concentrations of PB141 for 24 h. Cells were then isolated and the DNA-binding activity of the antioxidant transcription factor Nrf2 was determined. The nuclear concentration of Nrf2 was also determined by Western blotting. […] In some experiments monolayer cultures were deprived of serum for 24 h, pre-treated with different concentrations of PB141 for 1 h, then exposed to LPS for 6 h. Nuclear proteins were prepared and were used to quantify DNA-binding activity of the p65 subunit of NF-κB.

[1] = test system: pulmonary fibrosis in mice; assay: Pulmonary fibrosis model (bleomycin, asbestos or X-ray induced); type: in vivo
Procedure: Induction of pulmonary fibrosis by intratracheal injection of bleomycin sulphate (BLM; 0.05 units) was followed by nebulization of PB141 (25 mg/kg) or vehicle (saline) and delivery to cage air via a micropump nebulizer. After 21 days lung samples were obtained. (A) Lung hydroxyproline content. (B) Lung fibrinolysis. (C) Lung collagen content. (D) Lung TGF-β content. Data are representative of one of two independent experiments with n=5-7 mice per group; ** p<0.01, *** p<0.001.
Lung fibrosis was induced by methods previously reported in literature of the relevant art. Briefly, 50 μl of bleomycin sulfate in saline or 0.1 mg of NIEHS crocidolite asbestos (N 10 μm in length) was administered intratracheally into anesthetized mice. In some experiments fibrosis was induced by the following standard X-ray exposure procedure: Anesthetized mice at the age of 10-12 weeks were immobilized, with a lead shield excluding all but the thoracic cavity. Animals were then irradiated with a single dose of 14.5 Gy from a cesium source (J. L. Shepherd and Associates, San Fernando, Calif.) at a dose rate of 1.65 Gy/min LD50 for C57BL/6J mice is 14.5 Gy. At this dose, survival is sufficient to permit adequate numbers of animals for long-term analyses.
After induction of pulmonary fibrosis using the methods as described above, PB141 (25 mg/kg) dissolved in normal saline was delivered for 30 min via a micropump nebulizer (Buxco Research Systems, Wilmington, N.C.) fitted at the chamber inlet. After 21 days, bronchoalveolar lavage fluid (BALF) samples were obtained and analyzed for cellular infiltration by hemocytometer and differential staining of cells. Pulmonary fibrosis was assessed from lung homogenates by estimating total lung collagen content using the Sircol Collagen Assay kit (Biocolor) and hydroxyproline content using a hydroxyproline assay kit (BioVision, Mountain View, Calif.) according to the manufacturer's instructions. Lung histology sections were assessed by morphometry, hematoxylin and eosin (H&E) staining, and Masson's trichrome staining.

alveolar macrophages = assay: Gene expression in alveolar macrophages isolated from BAL fluid of treated mice (real-time PCR); type: in vivo; details: mice given LPS then 25 mg/kg nebulized
Procedure: Induction of ALI by intratracheal injection of LPS (50 μg) was followed 30 min later by nebulization of PB141 (25 mg/kg) or vehicle (saline) and delivery to cage air via a micropump nebulizer. After another 5.5 h BAL fluid was obtained. Alveolar macrophages were isolated from the BAL fluid and plated in DMEM+10% FBS. After 1 h, RNA was isolated and expression of the indicated genes was determined using real-time PCR; results were normalized to values for the housekeeping genes glyceraldehyde-3-phosphate dehydrogenase (GAPDH) and […]. Data are representative of one of two independent experiments with n=6-8 mice per group; **P<0.01; ***P<0.001.
(§1) For additional in vitro studies, after the treatment described above alveolar macrophages were isolated from the BAL fluid and plated in DMEM+10% FBS. After 1 h, RNA was isolated and expression of the different genes was determined using real-time PCR; results were normalized to values for the housekeeping genes glyceraldehyde-3-phosphate dehydrogenase (GAPDH) and […]. […] In other experiments, PMNs were isolated from peripheral blood of endotoxin-treated mice by hetastarch exchange transfusion. PMN adhesion was assessed with the Cytoselect Leukocyte-Endothelium Adhesion Assay kit (CBA-210; Cell Biolabs) and transendothelial PMN migration was determined with the Cytoselect Leukocyte Transmigration Assay kit (CBA-212; Cell Biolabs).

PMNs = assay: PMN adhesion and transendothelial migration, cells of endotoxin-treated mice; type: in vivo; details: PMNs from peripheral blood of endotoxin-treated mice
Procedure: as §1

[2] = test system: cigarette smoke-induced COPD in mice; assay: Cigarette smoke-induced COPD model; type: in vivo
Procedure: COPD was induced by exposure of mice to whole-body cigarette smoke for 5 days, at the end of which the mice were euthanized and cells and levels of mediators were obtained from the pulmonary airspace by bronchoalveolar lavage. Some mice received PB141 (25 mg/kg) simultaneously with the cigarette smoke (A-I).
Mice were exposed 5 days per week for 4 wk (sub-acute exposure) to the smoke of five cigarettes (Reference Cigarette 2R4F without filter; University of Kentucky) administered four times per day with a 30-min smoke-free interval between exposures. An optimal smoke:air ratio of 1:6 was obtained. In preventive studies, tobacco smoke exposure was paralleled by delivery of a nebulized solution containing PB141 (25 mg/kg) or vehicle (saline) via a micropump nebulizer (Buxco Research Systems, Wilmington, N.C.). At the conclusion of smoke exposure the extent of lung inflammation was assessed by counting polymorphonuclear neutrophils (PMNs) in bronchoalveolar lavage fluid and measuring lung vascular permeability, edema, pulmonary lymphoid aggregation, and generation of inflammatory chemokines and cytokines. Emphysema was assessed by destruction of alveolar walls, quantitated as the destructive index (DI), and by enlargement of alveolar spaces, quantitated by the mean linear intercept (Lm). Airway remodeling was assessed by staining collagen in the airway wall and by measuring the amount of fibronectin. Lung histology sections were assessed for inflammation and injury following hematoxylin and eosin (H&E) staining. Lymphoid aggregates were quantification by morphometric analysis.

[3] = 25 mg/kg nebulized in parallel with smoke exposure

T1 sequence (Q04206 whole entry): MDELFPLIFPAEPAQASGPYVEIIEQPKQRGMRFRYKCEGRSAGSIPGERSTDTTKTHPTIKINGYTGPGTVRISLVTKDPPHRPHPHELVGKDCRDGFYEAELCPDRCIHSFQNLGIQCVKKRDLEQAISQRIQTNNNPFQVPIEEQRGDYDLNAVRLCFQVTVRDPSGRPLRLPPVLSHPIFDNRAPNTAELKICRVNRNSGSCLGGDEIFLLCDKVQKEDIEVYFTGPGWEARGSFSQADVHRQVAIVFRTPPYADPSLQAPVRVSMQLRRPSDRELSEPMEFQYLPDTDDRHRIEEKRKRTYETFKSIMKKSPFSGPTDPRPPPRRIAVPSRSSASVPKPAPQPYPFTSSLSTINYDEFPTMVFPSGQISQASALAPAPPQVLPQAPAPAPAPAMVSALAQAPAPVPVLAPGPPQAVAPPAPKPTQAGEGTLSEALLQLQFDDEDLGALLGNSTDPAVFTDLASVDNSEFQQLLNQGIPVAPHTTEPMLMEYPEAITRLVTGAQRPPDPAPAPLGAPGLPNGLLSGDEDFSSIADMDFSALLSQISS

## CC(=O)N[C@@H](CSC(CC(=O)CC(SC[C@H](NC(C)=O)C(=O)O)c1cnccn1)c1cnccn1)C(=O)O (stereo partly drawn) [PB141]
p65 subunit of NF-κB; 1 μM
  Inhibition of NF-κB activity at 1 μM: almost complete inhibition
p65 subunit of NF-κB; different concentrations
  NF-κB activity (p65 DNA-binding): inhibited NF-κB activity in a concentration-dependent manner
[1]; 25 mg/kg nebulized, 21 days
  Collagen production: effectively prevented
  Inflammatory cell infiltration: effectively prevented
  Myofibroblast differentiation: effectively prevented
[1]; even with intratracheal administration
  Tolerability of the solution: well tolerated
[1]; repeated pulmonary dosing, 25 mg/kg
  Pulmonary fibrosis: significantly reduced
Alveolar macrophages
  Transcription of antioxidant genes in alveolar macrophages: increased
  Transcription of inflammatory genes in alveolar macrophages: decreased
PMNs
  PMN adhesion: decreased
  Transendothelial PMN migration: decreased
[2]; [3]
  Airway wall remodeling: significantly decreased
  Cigarette smoke-induced increase of inflammatory cells in the lungs: significantly decreased
  Development of pulmonary hypertension: significantly decreased
  Emphysema: significantly decreased
  Generation of inflammatory chemokines and cytokines: significantly decreased
  Pulmonary lymphoid aggregates: significantly decreased
[2]; administration by nebulization
  Phagocytic ability of alveolar macrophages: improved
